Measurements taken from patent US12173020B2, “New-type oxazolidinone compounds and preparation method therefor” (priority 2019, dated 2024).

Key:
[1] = tested on: vancomycin-resistant Enterococcus (VRE); assay: agar dilution method, inhibitory effect on VRE; type: cell-based; conditions: for MIC50: Enterococcus, read-out: Minimum inhibitory concentration (MIC50, μg/ml) VRE
Text: (§1) In order to determine the antibacterial activity of these new oxazolidinone-based compounds, an agar dilution method was used to test the inhibitory effect on methicillin-resistant Staphylococcus aureus (MRSA) and vancomycin-resistant Enterococcus (VRE). The bacteria inhibition effect was expressed as minimum inhibitory concentration (MIC50, μg/ml) The test results are shown in the following table.

[2] = tested on: methicillin-resistant Staphylococcus aureus (MRSA); assay: agar dilution method, inhibitory effect on MRSA; type: cell-based; conditions: for MIC50: Staphylococcus aureus, read-out: Minimum inhibitory concentration (MIC50, μg/ml) MRSA
Text: as §1

SMILES | Minimum inhibitory concentration (MIC50, μg/ml) VRE [1] [µg/mL] | Minimum inhibitory concentration (MIC50, μg/ml) MRSA [2] [µg/mL] | MIC50 [1] [µg/mL] | MIC50 [2] [µg/mL]
CCCn1nnc(-c2ccc(-c3ccc(N4C[C@H](C(O)C(F)(F)F)OC4=O)cc3F)cn2)n1.O=P(O)(O)O (stereo partly drawn) [compound 103, (R)-3-(3-fluoro-4-(6-(2-propyl-2H-tetrazol-5-yl)pyridin-3-yl)phenyl)-5-(1-hydroxy-2-trifluoroethyl) oxazolidin-2-one phosphate] | 0.7 | 0.7 |  | 
CCCn1nnc(-c2ccc(-c3ccc(N4C[C@@H](C(O)C(F)(F)F)OC4=O)cc3F)cn2)n1.O=P(O)(O)O (stereo partly drawn) [compound 104, (S)-3-(3-fluoro-4-(6-(2-propyl-2H-tetrazol-5-yl)pyridin-3-yl)phenyl)-5-(1-hydroxy-2-trifluoroethyl) oxazolidin-2-one phosphate] | 0.5 | 0.5 |  | 
CCCn1nnc(-c2ccc(-c3ccc(N4C[C@H](C(C)O)OC4=O)cc3F)cn2)n1.O=P(O)(O)O (stereo partly drawn) [compound 105, (R)-3-(3-fluoro-4-(6-(2-propyl-2H-tetrazol-5-yl)pyridin-3-yl)phenyl)-5-(1-hydroxyethyl) oxazolidin-2-one phosphate] |  |  | 1.3 | 1.4
CCCn1nnc(-c2ccc(-c3ccc(N4C[C@@H](C(C)O)OC4=O)cc3F)cn2)n1.O=P(O)(O)O (stereo partly drawn) [compound 106, (S)-3-(3-fluoro-4-(6-(2-propyl-2H-tetrazol-5-yl)pyridin-3-yl)phenyl)-5-(1-hydroxyethyl) oxazolidin-2-one phosphate] |  |  | 1.2 | 1
CCCn1nnc(-c2ccc(-c3ccc(N4C[C@H](C(O)CC)OC4=O)cc3F)cn2)n1.O=P(O)(O)O (stereo partly drawn) [compound 107, (R)-3-(3-fluoro-4-(6-(2-propyl-2H-tetrazol-5-yl)pyridin-3-yl)phenyl)-5-(1-hydroxypropyl) oxazolidin-2-one phosphate] |  |  | 0.8 | 0.8
CCCn1nnc(-c2ccc(-c3ccc(N4C[C@@H](C(O)CC)OC4=O)cc3F)cn2)n1.O=P(O)(O)O (stereo partly drawn) [compound 108, (S)-3-(3-fluoro-4-(6-(2-propyl-2H-tetrazol-5-yl)pyridin-3-yl)phenyl)-5-(1-hydroxypropyl) oxazolidin-2-one phosphate] |  |  | 0.4 | 0.5
CCCn1nnc(-c2ccc(-c3ccc(N4C[C@H](C(O)F)OC4=O)cc3F)cn2)n1.O=P(O)(O)O (stereo partly drawn) [compound 109, (R)-3-(3-fluoro-4-(6-(2-propyl-2H-tetrazol-5-yl)pyridin-3-yl)phenyl)-5-(hydroxyfluoromethyl) oxazolidin-2-one phosphate] |  |  | 0.2 | 0.2
CCCn1nnc(-c2ccc(-c3ccc(N4C[C@@H](C(O)F)OC4=O)cc3F)cn2)n1.O=P(O)(O)O (stereo partly drawn) [compound 110, (S)-3-(3-fluoro-4-(6-(2-propyl-2H-tetrazol-5-yl)pyridin-3-yl)phenyl)-5-(hydroxyfluoromethyl) oxazolidin-2-one phosphate] |  |  | 0.2 | 0.2
O=C1O[C@@H](C(O)C(F)(F)F)CN1c1ccc(-c2ccc(-c3nnn(C4CC4)n3)nc2)c(F)c1.O=P(O)(O)O (stereo partly drawn) [compound 111, (R)-3-(3-fluoro-4-(6-(2-cyclopropyl-2H-tetrazol-5-yl)pyridin-3-yl)phenyl)-5-(1-hydroxy-2-trifluoroethyl) oxazolidin-2-one phosphate] | 0.3 | 0.3 |  | 
O=C1O[C@H](C(OP(=O)(O)O)C(F)(F)F)CN1c1ccc(-c2ccc(-c3nnn(C4CC4)n3)nc2)c(F)c1 (stereo partly drawn) [compound 112, (S)-3-(3-fluoro-4-(6-(2-cyclopropyl-2H-tetrazol-5-yl)pyridin-3-yl)phenyl)-5-(1-hydroxy-2-trifluoroethyl) oxazolidin-2-one phosphate] | 0.9 | 0.9 |  | 
CC(O)[C@H]1CN(c2ccc(-c3ccc(-c4nnn(C5CC5)n4)nc3)c(F)c2)C(=O)O1.O=P(O)(O)O (stereo partly drawn) [compound 113, (R)-3-(3-fluoro-4-(6-(2-cyclopropyl-2H-tetrazol-5-yl)pyridin-3-yl)phenyl)-5-(1-hydroxyethyl) oxazolidin-2-one phosphate] |  |  | 0.2 | 0.2
CC(O)[C@@H]1CN(c2ccc(-c3ccc(-c4nnn(C5CC5)n4)nc3)c(F)c2)C(=O)O1.O=P(O)(O)O (stereo partly drawn) [compound 114, (S)-3-(3-fluoro-4-(6-(2-cyclopropyl-2H-tetrazol-5-yl)pyridin-3-yl)phenyl)-5-(1-hydroxyethyl) oxazolidin-2-one phosphate] |  |  | 0.3 | 0.3
CCC(OP(=O)(O)O)[C@H]1CN(c2ccc(-c3ccc(-c4nnn(C5CC5)n4)nc3)c(F)c2)C(=O)O1 (stereo partly drawn) [compound 115, (R)-3-(3-fluoro-4-(6-(2-cyclopropyl-2H-tetrazol-5-yl)pyridin-3-yl)phenyl)-5-(1-hydroxypropyl)) oxazolidin-2-one phosphate] | 0.5 | 0.5 |  | 
CCC(OP(=O)(O)O)[C@@H]1CN(c2ccc(-c3ccc(-c4nnn(C5CC5)n4)nc3)c(F)c2)C(=O)O1 (stereo partly drawn) [compound 116, (S)-3-(3-fluoro-4-(6-(2-cyclopropyl-2H-tetrazol-5-yl)pyridin-3-yl)phenyl)-5-(1-hydroxypropyl)) oxazolidin-2-one phosphate] | 0.3 | 0.2 |  | 
O=C1O[C@@H](C(O)F)CN1c1ccc(-c2ccc(-c3nnn(C4CC4)n3)nc2)c(F)c1.O=P(O)(O)O (stereo partly drawn) [compound 117] | 0.4 | 0.4 |  | 
O=C1O[C@H](C(F)OP(=O)(O)O)CN1c1ccc(-c2ccc(-c3nnn(C4CC4)n3)nc2)c(F)c1 (stereo partly drawn) [compound 118, (S)-3-(3-fluoro-4-(6-(2-cyclopropyl-2H-tetrazol-5-yl)pyridin-3-yl)phenyl)-5-(hydroxyfluoromethyl)) oxazolidin-2-one phosphate] | 0.6 | 0.6 |  | 
C=Cn1nnc(-c2ccc(-c3ccc(N4C[C@H](C(O)C(F)(F)F)OC4=O)cc3F)cn2)n1.O=P(O)(O)O (stereo partly drawn) [compound 119, (R)-3-(3-fluoro-4-(6-(2-vinyl-2H-tetrazol-5-yl)pyridin-3-yl)phenyl)-5-(1-hydroxy-2-trifluoroethyl) oxazolidin-2-one phosphate] | 0.7 | 0.7 |  | 
C=Cn1nnc(-c2ccc(-c3ccc(N4C[C@@H](C(OP(=O)(O)O)C(F)(F)F)OC4=O)cc3F)cn2)n1 (stereo partly drawn) [compound 120, (S)-3-(3-fluoro-4-(6-(2-vinyl-2H-tetrazol-5-yl)pyridin-3-yl)phenyl)-5-(1-hydroxy-2-trifluoroethyl) oxazolidin-2-one phosphate] | 0.2 | 0.2 |  | 
